The assay has as its system 8XTBD luciferase reporter (YAP reporter) in HEK293T cells. Nature of the assay: YAP Reporter Assay. In kind it is cell-based. The conditions noted are these: Homo sapiens, HEK-293T; HEK293T cells stably transfected with 8XTBD luciferase reporter and pRLTK; 24-hr incubation; top concentration 3 μM; read-out: Firefly Luciferase IC50. The protocol:
HEK293T cells stably transfected with 8XTBD luciferase reporter and pRLTK in 384-well plates were treated with the test compounds, starting from 3 μM (final concentration in assay plate), 1:3 dilution, and 10 points in quadruplicates. Post 24-hr incubation with compounds at 37° C. and 5% CO2, cells were lysed and 8XTBD-driven firefly luciferase and control TK-driven renilla luciferase activities were measured using Promega Dual-Luciferase Reporter Assay System.
Reagents: The reagents used for this study are: DMEM: Invitrogen #11960077, Dual-Glo Luciferase Assay System: Promega-E2980, Puromycin Dihydrochloride: Invitrogen-A1113803, 384-well plate: PerkinElmer-6007480, L-GLUTAMINE: Invitrogen-25030164, Hygromycin B: Invitrogen-10687010, and Penicillin-Streptomycin: Merk-TMS-AB2-C
Media: The media used for this assay were: Culture Medium: DMEM+1 ug/mL puromycin+200 ug/mL hygromycin (with 10% FBS+1 mM L-glutamine); and Assay Medium: DMEM (with 10% FBS+1 mM L-glutamine+1×P/S).
Cell Plating: The appropriate media was warmed at 37° C. by water bath: Culture Medium, Assay Medium, 1*D-PBS, 0.05% trypsin-EDTA. The cells were trypsinized after removing all media, then washed with 1*sterile D-PBS and then with 2 ml 0.05% trypsin-EDTA. The cells were then incubated at RT for one minute. Then 10 ml/75 cm2 flask Assay Medium was added to each flask. Using a 10 ml pipette, the cells were then gently resuspended in the media, until the clumps completely disappeared. The cells were then transferred into 50 ml centrifuge tubes and were centrifuged at 800 rpm for 5 mins. The medium was removed and the cells were resuspended with Assay Medium. An aliquot of cells was used to count the cell density (cells/ml). The cell suspension was then diluted with Assay Medium to a concentration of 6×10^4 cells/ml. 50 ul cells suspension was then plated to 384-well plate (PerkinElmer-6007480), 3×10^3 cells/well and the cells were incubated in an incubator at 37° C. 5% CO2.
Compound Treatment: In the afternoon (incubation of the plate with 3-4 hrs), the test compounds were added by Echo, starting from 3 uM (final concentration in the assay plate), 1:3 dilution, 10 points, quadruplicates. The plate was placed at 37° C. 5% CO2 incubator for 24 hrs.
Detection: The Dual-Glo Luciferase Reagent was prepared by transferring the contents of one bottle of Dual-Glo Luciferase Buffer to one bottle of Dual-Glo Luciferase Substrate to create the Dual-Glo Luciferase Reagent. Mixing was performed by inversion until the substrate was thoroughly dissolved. After mixing, the reagent was aliquoted into 15 ml tubes. In the afternoon (24 hrs post compound treatment), the DMEM+ medium in the 384 well plates were aspirated by Microplate Washer.
Measuring firefly luciferase activity: 20 ul Dual-Glo Luciferase Reagent was added to the 384-well plates. The plates were protected from light to prevent interference with the assay. The plates were shaken for 1 min followed centrifuging plates at 1000 rpm for 30 seconds. After waiting at least 10 minutes, the firefly luminescence was measured by Envision.
Measuring renilla luciferase activity: 20 ul Stop-Glo Reagent was added to the 384-well plates. The plates were shaken for 1 min and then centrifuged at 1000 rpm for 30 seconds. After waiting at least 10 minutes, the renilla luminescence was measured by Envision.
Compound IC50 and maximum inhibition on the firefly luciferase and renilla luciferase activities were reported separately.
(In general: A reporter such as luciferase makes a cellular process visible.)
For `O=C(NCCC=CCO)c1ccc2c(-c3ccc(C(F)(F)F)cc3)cccc2c1` (stereo in doubt) [Compound 245, N-[(E)-5-hydroxypent-3-enyl]-5-[4-(trifluoromethyl)phenyl]naphthalene-2-carboxamide], the IC50 (commonly the concentration that gives 50% inhibition) lay in the range of 100 to 1000 nM.

Regarding `CC(C)NC(=O)c1ccc2c(-c3ccc(C(F)(F)F)cc3)cccc2c1` [Compound 1, N-isopropyl-5-(4-(trifluoromethyl)phenyl)-2-naphthamide], the IC50 was under 100 nM.

On to `CS(=O)(=O)NC(=O)c1ccc2c(-c3ccc(C(F)(F)F)cc3)cccc2c1` [Compound 2, N-(methylsulfonyl)-5-(4-(trifluoromethyl)phenyl)-2-naphthamide], for which the half-maximal inhibitory concentration (IC50) is under 100 nM.

On to `CNS(=O)(=O)c1ccc2c(-c3ccc(C(F)(F)F)cc3)cccc2c1` [Compound 3, N-methyl-5-(4-(trifluoromethyl)phenyl)naphthalene-2-sulfonamide], for which the concentration for half-maximal inhibition (IC50) was under 100 nM.

Take `CC(C)NC(=O)c1cnc2c(-c3ccc(C(F)(F)F)cc3)cccc2c1` [Compound 4, N-isopropyl-8-(4-(trifluoromethyl)phenyl)quinoline-3-carboxamide]: the IC50 is under 100 nM.

Regarding `CCNS(=O)(=O)c1ccc2c(-c3ccc(C(F)(F)F)cc3)cccc2c1` [Compound 5, N-ethyl-5-(4-(trifluoromethyl)phenyl)naphthalene-2-sulfonamide], the IC50 is under 100 nM.

Consider `CC(C)NS(=O)(=O)c1ccc2c(-c3ccc(C(F)(F)F)cc3)cccc2c1` [Compound 6, N-isopropyl-5-(4-(trifluoromethyl)phenyl)naphthalene-2-sulfonamide], for which the IC50 is 100 to 1000 nM.

`CC(C)NC(=O)c1ccc2c(-c3ccc(C(F)(F)F)cc3)ccnc2c1` [Compound 7, N-isopropyl-4-[4-(trifluoromethyl)phenyl]quinoline-7-carboxamide]: the IC50 is 100 to 1000 nM.

Take `CC(C)NC(=O)c1ccc2c(-c3ccc(C(F)(F)F)cc3)ccc(Br)c2c1` [Compound 8, 8-bromo-N-isopropyl-5-(4-(trifluoromethyl)phenyl)-2-naphthamide]: the IC50 was under 100 nM.

`COC(=O)c1ccc2c(-c3ccc(C(F)(F)F)cc3)nccc2c1` [Compound 9, Methyl 1-[4-(trifluoromethyl)phenyl]isoquinoline-6-carboxylate]: the IC50 lay within 100 to 1000 nM.

Regarding `COC(=O)c1ccc2c(-c3ccc(C(F)(F)F)cc3)cnc(Cl)c2c1` [Compound 10, Methyl 1-chloro-4-[4-(trifluoromethyl)phenyl]isoquinoline-7-carboxylate], the IC50 was 1000 to 3000 nM.

Consider `CC(C)NC(=O)c1ccc2c(-c3ccc(C(F)(F)F)cc3)nccc2c1` [Compound 11, N-isopropyl-1-[4-(trifluoromethyl)phenyl]isoquinoline-6-carboxamide], for which the IC50 is under 100 nM.

Consider `CC(C)NC(=O)c1ccc2c(-c3ccc(C(F)(F)F)cc3)ccc(NC(=O)OC(C)(C)C)c2c1` [Compound 12, Tert-Butyl (7-(isopropylcarbamoyl)-4-(4-(trifluoromethyl)phenyl)naphthalen-1-yl)carbamate], for which the IC50 fell in the range of 100 to 1000 nM.

As to `CC(C)NC(=O)c1ccc2c(-c3ccc(C(F)(F)F)cc3)ccc(Cl)c2c1` [Compound 13, 8-chloro-N-isopropyl-5-(4-(trifluoromethyl)phenyl)-2-naphthamide], the IC50 is under 100 nM.

Regarding `COC(=O)c1ccc2c(-c3ccc(C(F)(F)F)cc3)cnc(O)c2c1` [Compound 14, Methyl 1-oxo-4-[4-(trifluoromethyl)phenyl]-2H-isoquinoline-7-carboxylate], the IC50 was under 100 nM.

For the compound `COC(=O)c1ccc2c(-c3ccc(C(F)(F)F)cc3)cn(C)c(=O)c2c1` [Compound 15, Methyl 2-methyl-1-oxo-4-[4-(trifluoromethyl)phenyl]isoquinoline-7-carboxylate], the IC50 was in the range of 100 to 1000 nM.

As to `CC(C)NC(=O)c1ccc2c(-c3ccc(C(F)(F)F)cc3)ccc(N)c2c1` [Compound 16, 8-amino-N-isopropyl-5-(4-(trifluoromethyl)phenyl)-2-naphthamide], the IC50 was under 100 nM.

`CC(=O)Nc1ccc(-c2ccc(C(F)(F)F)cc2)c2ccc(C(=O)NC(C)C)cc12` [Compound 17, 8-acetamido-N-isopropyl-5-(4-(trifluoromethyl)phenyl)-2-naphthamide]: the IC50 is under 100 nM.

For `CSc1ccc(-c2ccc(C(F)(F)F)cc2)c2ccc(C(=O)NC(C)C)cc12` [Compound 18, N-isopropyl-8-methylsulfanyl-5-[4-(trifluoromethyl)phenyl]naphthalene-2-carboxamide], the IC50 is under 100 nM.

On to `Cc1ccc(-c2ccc(C(F)(F)F)cc2)c2ccc(C(=O)NC(C)C)cc12` [Compound 19, N-isopropyl-8-methyl-5-[4-(trifluoromethyl)phenyl]naphthalene-2-carboxamide], for which the IC50 is under 100 nM.

Take `C#Cc1ccc(-c2ccc(C(F)(F)F)cc2)c2ccc(C(=O)NC(C)C)cc12` [Compound 20, 8-ethynyl-N-isopropyl-5-[4-(trifluoromethyl)phenyl]naphthalene-2-carboxamide]: the IC50 was under 100 nM.

For `CCc1ccc(-c2ccc(C(F)(F)F)cc2)c2ccc(C(=O)NC(C)C)cc12` [Compound 21, 8-ethyl-N-isopropyl-5-[4-(trifluoromethyl)phenyl]naphthalene-2-carboxamide], the concentration for half-maximal inhibition (IC50) was under 100 nM.

Consider `CC(C)NC(=O)c1ccc2c(-c3ccc(C(F)(F)F)cc3)ccc(C3CC3)c2c1` [Compound 22, 8-cyclopropyl-N-isopropyl-5-(4-(trifluoromethyl)phenyl)-2-naphthamide], for which the IC50 is under 100 nM.

Regarding `CC(C)NC(=O)c1ccc2c(-c3ccc(C(F)(F)F)cc3)ccc(NS(C)(=O)=O)c2c1` [Compound 23, N-isopropyl-8-(methylsulfonamido)-5-(4-(trifluoromethyl)phenyl)-2-naphthamide], the IC50 was under 100 nM.

Take `COC(=O)c1ccc2c(-c3ccc(C(F)(F)F)cc3)cncc2c1` [Compound 24, Methyl 4-[4-(trifluoromethyl)phenyl]isoquinoline-7-carboxylate]: the IC50 is under 100 nM.

On to `CC(C)NC(=O)c1ccc2c(-c3ccc(C(F)(F)F)cc3)cncc2c1` [Compound 25, N-isopropyl-4-[4-(trifluoromethyl)phenyl]isoquinoline-7-carboxamide], for which the IC50 lay in the range of 100 to 1000 nM.

As to `CC(C)NC(=O)c1ccc2c(-c3ccc(C(F)(F)F)cc3)cn(C)c(=O)c2c1` [Compound 26, N-isopropyl-2-methyl-1-oxo-4-(4-(trifluoromethyl)phenyl)-1,2-dihydroisoquinoline-7-carboxamide], the IC50 is under 100 nM.

With `CC(C)NC(=O)c1ccc2c(-c3ccc(C(F)(F)F)cc3)ccc([S+](C)[O-])c2c1` (centres unmarked) [Compound 27, N-isopropyl-8-methylsulfinyl-5-[4-(trifluoromethyl)phenyl]naphthalene-2-carboxamide], the IC50 is 100 to 1000 nM.

For the compound `CC(C)NC(=O)c1ccc2c(-c3ccc(C(F)(F)F)cc3)ccc(S(C)(=O)=O)c2c1` [Compound 28, N-isopropyl-8-methylsulfonyl-5-[4-(trifluoromethyl)phenyl]naphthalene-2-carboxamide], the IC50 fell in the range of 1000 to 3000 nM.

Take `NS(=O)(=O)NC(=O)c1ccc2c(-c3ccc(C(F)(F)F)cc3)cccc2c1` [Compound 29, N-sulfamoyl-5-(4-(trifluoromethyl)phenyl)-2-naphthamide]: the IC50 lay within 100 to 1000 nM.

Regarding `CC(=O)N(C)c1ccc(-c2ccc(C(F)(F)F)cc2)c2ccc(C(=O)NC(C)C)cc12` [Compound 30, N-isopropyl-8-(N-methylacetamido)-5-(4-(trifluoromethyl)phenyl)-2-naphthamide], the IC50 fell in the range of 100 to 1000 nM.

As for `CC(C)NC(=O)c1ccc2c(-c3ccc(C(F)(F)F)cc3)cc(Br)c(N)c2c1` [Compound 31, 8-amino-7-bromo-N-isopropyl-5-(4-(trifluoromethyl)phenyl)-2-naphthamide], the IC50 was under 100 nM.

The values above are taken from patent publication US11866431B2, “Bicyclic compounds” (Vivace Therapeutics, Inc., priority 2018, dated 2024).
